Measured values published in US20060287251A1, “Combination therapy for glycaemic control” (priority 2003, published 2006).

Experiments:
diabetic Zucker rats = assay: Dose escalation study with OGTT in fatty Zucker rats after oral administration; type: in vivo, rat
Protocol: N=30 male Zucker rats (fa/fa), mean age 11 weeks (5-12 weeks), mean body weight 350 g (150-400 g), were purchased from Charles River (Sulzfeld, Germany). After delivery they were kept for >12 weeks until nearly all fatty Zucker rats had the characteristics of manifest diabetes mellitus. A group of N=8 animals were recruited for testing three escalating doses of glutaminyl pyrrolidine vs. placebo (saline). Animals were single-caged under standardized conditions with controlled temperature (22±2° C.) on a 12/12 hours light/dark cycle (light on at 06:00 AM). Sterile standard pelleted chow (ssniff® Soest, Germany) and tap water acidified with HCl were allowed ad libitum. Fatty Zucker rats of 24-31 weeks (mean: 25 weeks) age, adapted to the housing conditions, were well prepared for the study. Catheters were implanted into the carotid artery of fatty Zucker rats under general anaesthesia (i.p. injection of 0.25 ml/kg b.w. Rompun®[2%], BayerVital, Germany and 0.5 ml/kg b.w. Ketamin 10, Atarost GmbH & Co., Twistringen, Germany). The animals were allowed to recover for one week. The catheters were flushed with heparin-saline (100 IU/ml) three times per week.
Placebo (1 ml saline, 0.154 mol/l) or escalating doses of glutaminyl pyrrolidine (5, 15 and 50 mg/kg b.w.) were administered to groups of N=8 fatty Zucker rats. 375 mg of glutaminyl pyrrolidine were dissolved in 1000 μl DMSO (E. Merck, Darmstadt; Germany [Dimethyl sulfoxide p.a.]). 10 mL saline was added and 1 ml aliquots, each containing 34.09 mg of glutaminyl pyrrolidine, were stored at −20° C. For preparation of the test substance, dose dependent aliquots were diluted in saline. After overnight fasting, placebo or test substance were administered to the fatty Zucker rats via feeding tube orally (15 G, 75 mm; Fine Science Tools, Heidelberg, Germany) at −10 min An oral glucose tolerance test (OGTT) with 2 g/kg b.w. glucose (40% solution, B. Braun Melsungen, Melsungen, Germany) was administered at ±O min via a second feeding tube. Venous blood samples from the tail veins were collected at −30 min, −15 min, ±0 min and at 5, 10, 15, 20, 30, 40, 60, 90 and 120 min into 20 lμl glass capillaries, which were placed in standard tubes filled with 1 mL solution for blood glucose measurement. All blood samples were labelled with Code number, Animal Number, Date of sampling and Time of sampling.
Glucose levels were measured using the glucose oxidase procedure (Super G Glucose analyzer; Dr. Müller Gerältebau, Freital, Germany).
Statistical evaluations and graphics were performed with PRISM® 3.02 (GraphPad Software, Inc.). All parameters were analysed in a descriptive manner including mean and SD. […]

Plasma stability = type: in vitro ADME, human; conditions: 37 °C; for stability in human plasma: human plasma in vitro; for half-life of the inhibitory potency: human plasma, 5*10^−5, 2.5*10^−5, 1.25*10^−5 M
Protocol: In order to investigate the stability of glutaminyl pyrrolidine or glutaminyl thiazolidine in human plasma, the activity of DPIV in plasma was determined at a defined time. The average DPIV activity in human plasma was determined as 43.69 U/mL. In the working solution, the plasma was diluted in 0.9% NaCl to fix the DPIV activity level at 25 U/mL. Plasma and glutaminyl pyrrolidine or glutaminyl thiazolidine in different concentrations (5*10^−5, 2.5*10^−5, 1.25*10^−5 M in plasma) were incubated at 37° C. At defined time points samples were taken using a pipette roboter (Gilson 215, Liquid handler, Gilson) and transferred in a microtiter plate containing 5*10^−5 M glycylprolylaminomethylcoumarine in 0.9% NaCl+015% Brij per well. After 6 min the reaction was stopped by addition of isoleucylthiazolidine (5*10^−5 M in 0.9% NaCl solution). Fluorescence measurement was performed against 0.9% NaCl in plasma (reference standard) using a plate reader (HTS7000 plus, Applied Biosystems, Weiterstadt, Germany). The half-life of the inhibitory potency of glutaminyl pyrrolidine or glutaminyl thiazolidine was calculated by plotting the enzyme activity versus reaction time.

[1] = 5, 15 and 50 mg/kg b.w. oral (dose escalation)

Row | SMILES | glucose tolerance in OGTT (diabetic Zucker rats; 5 mg/kg b.w. oral, OGTT 2 g/kg glucose) | blood glucose levels and glucose tolerance in OGTT (diabetic Zucker rats; 15 mg/kg and 50 mg/kg b.w. oral, OGTT 2 g/kg glucose) | blood glucose levels and glucose tolerance in OGTT (diabetic Zucker rats; [1]) | stability in human plasma (Plasma stability) | half-life of the inhibitory potency (Plasma stability)
1 | NC(=O)CC[C@H](N)C(=O)N1CCCC1 [glutaminyl pyrrolidine] | limited improvement of glucose tolerance | Significant lowering of elevated blood glucose levels and improvement of glucose tolerance | dose dependent lowering of elevated blood glucose levels | stable in human plasma over 22 hours | no half-time could be determined
2 | NC(=O)CC[C@H](N)C(=O)N1CCSC1 [glutaminyl thiazolidine] | – | – | dose dependent lowering of elevated blood glucose levels and improvement of glucose tolerance | stable in human plasma over 22 hours | no half-time could be determined
